Patent US9138659B2, “Compositions, methods, and systems relating to controlled crystallization and/or nucleation of molecular species” (Massachusetts Institute of Technology, priority 2010, dated 2015)

Test: Nucleation induction time of ASA / ACM with PEGDA or PEGDA-co-AM microgels in 38/62 ethanol/water
Format: physicochemical
Conditions: for Average nucleation induction time τ (stretched exponential fit): ASA S=2.1; for τ1 (two-exponential fit) / τ2 (two-exponential fit): ASA; for optimum mesh size for inducing ASA nucleation: PEGDA particles
Excerpt: Nucleation kinetics of model compounds was investigated by measuring the nucleation induction time probability distribution. Nucleation induction time is generally time elapsed prior to the formation of a detectable amount of the new crystalline phase. It is a useful indicator of the surface nucleation activity because it can be dramatically shortened when the presence of an interface lowers the free energy barrier of nucleation. Due to the stochastic nature of nucleation events, a large number of experiments were performed to obtain the probability distribution of nucleation induction time. To obtain the average induction time τ, statistical analysis on the induction time data was conducted based on the understanding that nucleation follows a Poisson distribution. According to Poisson statistics, the probability for a nucleation event to occur beyond time t is P=exp(−t/τ), which implies that the fraction of vials without nucleation at time t exponentially decays as a function of time, where the scaling factor for time is the average induction time.
For determining the statistical analysis of aspirin nucleation induction time with PEGDA particles of various mesh sizes (particles denoted by Mn), 1.9 mL of 38 mg/ml ASA solution in 38/62 ethanol/water (v/v) with 15 μg/mL PEGDA particles was cooled at a rate of 5° C./min from 35° C. to 15° C. to achieve a supersaturation of 2.1. The solution was stirred at 700 rpm. The onset of nucleation was detected by an IR probe which measures the transmission signal through the solution. A total of 10 vials were cycled for 5-10 times to yield 50-100 nucleation induction time measurements for the statistical analysis.
The nucleation rate, J, is given by J=1/τV, where τ the average induction time (Table 1) and V the volume of solution. For this equation to be valid, the assumption is that the crystal growth rate is much faster than the nucleation rate, which is the case for ASA. […] Other crystallization conditions were kept the same.
[…] The solution was stirred at 700 rpm. The onset of nucleation was detected by an IR probe which measures the transmission signal through the solution. A total of 10 vials were cycled for 5-10 times to yield 50-100 nucleation induction time data for the statistical analysis.
Effect of polymer gels on nucleation induction time statistics: To evaluate the impact of polymer-solute interactions on nucleation kinetics, induction times of ASA and ACM were measured with microgels of a series average mesh sizes before and after chemical modification suspended in respective supersaturated solutions. […] For each system, a large number of experiments (50-100) were conducted to obtain the induction time probability distribution. The nucleation induction time generally follows the Poisson distribution. However, deviations can occur, as observed in this study, when there is more than one type of nucleation sites in a sample, giving rise to multiple Poisson processes with different characteristic time scales.
For samples with PEGMDA microgels, the nucleation induction time distributions reported in previous work can be faithfully described by stretched exponentials (Tables 5 and 6), P=exp[−(t/τ)^β], where P is the probability to observe no crystallization event within time t, τ the average induction time. The stretched exponential exponent β served as a measure for the spread of time scales characterizing the nucleation process, or the distribution of kinetic barriers arisen from the heterogeneity of the system. Such heterogeneity can be attributed to the heterogeneity of the polymer microstructure identified using SANS, which resulted from a distribution of nucleation sites arising from spatial variations in both the mesh size and chemical composition of the hydrogel at nanometer length scales. Note that β varies with the average mesh size of the microgel. […]

[1] = PEGDA-co-AM microgels M 130 g/mol
[2] = PEGDA-co-AM microgels M 200 g/mol
[3] = PEGDA-co-AM microgels M 400 g/mol
[4] = PEGDA-co-AM microgels M 575 g/mol
[5] = PEGDA-co-AM microgels M 700 g/mol

CC(=O)Oc1ccccc1C(=O)O [aspirin]
average nucleation induction time τ (ASA S = 2.1, Bulk (no particles), 38/62 ethanol/water): ∞
average nucleation induction time τ (ASA S = 2.1, PEGDA microparticles Mn 130 g/mol, 38/62 ethanol/water): ∞
average nucleation induction time τ (ASA S = 2.1, PEGDA microparticles Mn 200 g/mol, 38/62 ethanol/water): 910 ± 40 min
average nucleation induction time τ (ASA S = 2.1, PEGDA microparticles Mn 400 g/mol, 38/62 ethanol/water): 60 min
average nucleation induction time τ (ASA S = 2.1, PEGDA microparticles Mn 400 g/mol, 38/62 ethanol/water, listed as ASA): 63 ± 3 min
average nucleation induction time τ (ASA S = 2.1, PEGDA microparticles Mn 575 g/mol, 38/62 ethanol/water): 1900 ± 100 min
average nucleation induction time τ (ASA S = 2.1, PEGDA microparticles Mn 700 g/mol, 38/62 ethanol/water): 6600 ± 1100 min
average nucleation induction time τ (ASA S = 3.3, Bulk (no particles), 38/62 ethanol/water): 2500 ± 600 min
average nucleation induction time τ (ASA S = 3.3, PEGDA microparticles Mn 130 g/mol): 330 ± 60 min
average nucleation induction time τ (ASA S = 3.3, PEGDA microparticles Mn 200 g/mol): 52 ± 3 min
average nucleation induction time τ (ASA S = 3.3, PEGDA microparticles Mn 400 g/mol): 123 ± 7 min
average nucleation induction time τ (ASA S = 3.3, PEGDA microparticles Mn 700 g/mol): 240 ± 20 min
Average nucleation induction time τ (stretched exponential fit) (Bulk / PEGDA microgels M 130 g/mol): Not detectable
Average nucleation induction time τ (stretched exponential fit) (PEGDA microgels M 200 g/mol): 1052 min
Average nucleation induction time τ (stretched exponential fit) (PEGDA microgels M 400 g/mol): 66.7 min
Average nucleation induction time τ (stretched exponential fit) (PEGDA microgels M 575 g/mol): 3500 min
Average nucleation induction time τ (stretched exponential fit) (PEGDA microgels M 700 g/mol): 210000 min
τ1 (two-exponential fit) [1]: 170 min
τ2 (two-exponential fit) [1]: 4900 min
τ1 (two-exponential fit) [2]: 21 min
τ2 (two-exponential fit) [2]: 99 min
τ1 (two-exponential fit) [3]: 39 min
τ2 (two-exponential fit) [3]: 400 min
τ1 (two-exponential fit) [4]: 51 min
τ2 (two-exponential fit) [4]: 470 min
τ1 (two-exponential fit) [5]: 33 min
τ2 (two-exponential fit) [5]: 720 min
optimum mesh size for inducing ASA nucleation (8° C, higher supersaturation (3.4)): 10 Å
optimum mesh size for inducing ASA nucleation (15° C, supersaturation 2.1): approximately 15 Å
promotion of nucleation kinetics when AM co-monomer was introduced into the PEGDA matrix (PEGDA-co-AM vs PEGDA microgels): up to four orders of magnitude
best enhancement in nucleation kinetics by addition of PEGDA particles (vs bulk, Table 2): many orders of magnitudes
